{"source": "patent US20100190739A1", "about": "“Rapidly Dissolving Vitamin Formulation and Methods of Using the Same” (FLEMING AND COMPANY, PHARMACEUTICALS, priority 2008, published 2010)", "origin": "cited, not measured here", "key": {"[1]": {"settings": "Institute of Medicine"}, "[2]": {"test": "not given", "remark": "listed apart in the source"}}, "data": [{"molecule": "[Cr]", "note": "[Chromium, chromium]", "values": [{"measurement": "Doses that can cause adverse reactions", "setting": "some evidence", "result": "above 250 μg"}]}, {"molecule": "Cc1ncc(C[n+]2csc(CCO)c2C)c(N)n1", "note": "[Example B1, thiamine]", "values": [{"measurement": "Dose with no evidence of oral toxicity", "setting": "doses as high as, taken for extended periods of time", "result": 200, "unit": "mg"}]}, {"molecule": "Cc1ncc(CO)c(CO)c1O", "note": "[Example B6, pyridoxine]", "values": [{"measurement": "Tolerable upper limit", "setting": "[1]", "result": 100, "unit": "mg/day"}, {"measurement": "Dose showing potential damage to sensory nerves", "setting": "long term study", "result": 200, "unit": "mg/day"}]}, {"molecule": "[Mn+2]", "note": "[Manganese, manganese]", "values": [{"measurement": "Tolerable upper limit", "setting": "[1]", "result": 11, "unit": "mg/day"}, {"measurement": "Fraction of dietary intake absorbed", "setting": "[2]", "result": "3-5%"}]}, {"molecule": "[Mo]", "note": "[Molybdenum, molybdenum]", "values": [{"measurement": "Intake causing significant losses of copper", "setting": "in vivo", "result": "above 500 μg/day"}]}, {"molecule": "[Se]", "note": "[Selenium, selenium]", "values": [{"measurement": "Tolerable upper limit", "setting": "[1]", "result": 0.4, "unit": "mg/day"}]}, {"molecule": "[Zn]", "note": "[Zinc, zinc]", "values": [{"measurement": "Tolerable upper limit", "setting": "[1]", "result": 40, "unit": "mg/day"}, {"measurement": "Doses at which acute toxicity can occur (as low as)", "setting": "in vivo", "result": "≥ 30", "unit": "mg/day"}, {"measurement": "Doses at which acute toxicity is more common", "setting": "in vivo", "result": "exceeding 100 mg/day"}]}, {"molecule": "O=C(O)c1cccnc1", "note": "[niacin]", "values": [{"measurement": "Tolerable upper limit", "setting": "[1]", "result": 35, "unit": "mg/day"}]}, {"molecule": "cobalamin [Example B12]", "values": [{"measurement": "Level at which toxicity has not been demonstrated", "setting": "in vivo", "result": "10,000 × the recommended daily allowance (RDA)"}]}]}
